Test results published in US9115363B2, “Gene expression and eradication system in Helicobacter pylori” (priority 2011, dated 2015).
Values joined by “and” are separate entries in the source; they are usually repeats but may differ in a detail not shown here. Equal entries are not always repeated.

How the values were obtained:
[1] = test system: Tet-ON mdaB::ptetR; urePtetO strains; experiment: In vivo induction of urePtetO by doxycycline, C57BL/6J infection model; design: species or system H. pylori; conditions: for dox concentration at which the strain could be re-isolated: one week of infection, C57BL/6J mice
Procedure: Regulation of urePtetO to drive the expression of urease by dox was evaluated using a C57BL/6J infection model. Mice were orally challenged with one of several Tet-ON, mdaB::ptetR; urePtetO strains and supplemented with a range of dox concentrations that were within the tolerance of X47. Urease is known to be an essential gene required for colonization, and therefore Tet-ON urePtetO strains should not be able to colonize in the absence of the inducer. […] Infection of urePtetO strains is dependent on dox supplementation (FIG. 9F). Mice were supplemented with dox for two weeks after infection to establish successful colonization of mdaB:: ptetR4; urePtetOI. […] Infection by strain mdaB::ptetR4; urePtetOI could be maintained for at least 4 weeks with dox supplementation.
6-7 week old C57BL/6J female mice were orally gavaged once with 200 μL of 1×10^9 CFU/mL bacteria, that had been passaged on CBA plates containing 50 ng/mL ATc to induce expression of tetracycline responsive genes. Mice were supplemented with doxycycline in their drinking water containing 5% sucrose. Mice were sacrificed at indicated time points and stomachs were removed and homogenized in 1 mL BHI using a tissue lysing agent (Retch). Homogenates were serially diluted and plated out on H. pylori selective plates, (CBA containing 5% Horse blood, Dent, polymyxin B 2500 U/L or 0.2975 mg/L, nalidixic acid 10 mg/L and Bacitracin 100 mg/L). Colonies were counted to calculate bacteria load. Re-isolated clones were checked for tet responsive gene expression and sequenced when appropriate.

[2] = test system: B128 pHel2-IEC-Ts-FliCsyn transconjugants; experiment: Immunoblotting of conditional fliCsyn expression; assay type: cell-based, H. pylori; conditions: selective blood agar plates with 50 ng/ml ATc; all tested clones
Procedure: The conditional expression of fliCsyn and expression of TetRs in the transconjugants B128 pHel2-IEC-Ts-FliCsyn was analyzed by immunobloting.
Bacteria were grown for 24 hours on selective plates or in selective liquid media. Cells were harvested and resuspended in phosphate-buffered saline (PBS) buffer. Samples were then sonicated for 10 seconds, mixed with sodium dodecyl sulfate (SDS) sample buffer and incubated at 37° C. for 15 min. Insoluble cell debris was removed by centrifugation at 13,000 rpm for 1 min. The proteins were separated by 10% SDS-polyacrylamide gel electrophoresis (PAGE) and electro-transferred to a PVDF membrane (Immobilon-P Transfer (0.45 μm, Millipore) with a constant voltage of 100 V in transfer buffer (192 mM glycine, 25 mM Tris, 20% [vol/vol] methanol) for 1 hour. The membranes were blocked with 3% BSA (Sigma) in PBST (150 mM NaCl, 10 mM Tris-C1, pH 7.0, 0.1% [vol/vol] Tween 20) and then incubated with the appropriate primary antibody, washed and then incubated with a secondary antibody containing a horseradish peroxidise (HRP) conjugate. The membrane was washed again and detection of secondary HRP conjugate was accomplished by chemiluminescence (Sigma). For detection of Cre recombinase, rabbit polyclonal IgG anti Cre (abcam) was used at a dilution of 1:1000. […] Chemiluminescence was detected using LAS 3000 (Fujifilm)(software Image reader LAS 3000 V2.2)

[3] = test system: uPtetO-cre in X47 mdaB:: ptetR2; experiment: Immunoblotting of conditional cre expression; assay type: cell-based, H. pylori; conditions: 50 ng/ml ATc, liquid culture, trpA:: uPtetO-cre, both strains
From the text: In order to conditionally express the Cre recombinase in H. pylori two Tet responsive promoters uPtetO1 and uPtetO2 were selected to control the cre expression. They consist of the core urease promoter containing a C to T mutation in the −10 box and one tetO site just downstream of the transcriptional start point. uPtetO2 contains a second tetO site between the −35 and −10 box. A synthetic H. pylori codon usage optimized version of the cre gene was amplified and cloned into the plasmid pTrpA-uPtetO1-GFP and pTrpA-uPtetO2-GFP to replace GFP. Natural transformation of the recipient strain H. pylori X47 mdaB:: ptetR2; trpA:: rpsL-CAT with these plasmids (pTrpA-uPtetO(1/2)-Cre) allowed integration of uPtetO-cre fusions in the chromosome at the trpA locus by homologous recombination. The conditional expression of cre in the constructed strains X47 mdaB:: ptetR2; trpA:: uPtetO-cre was analyzed by immunoblotting. Bacteria were grown in liquid culture the presence of none or 50 ng/ml ATc, respectively.
Immunoassay—SDS-PAGE and Western Blot Analysis.
Bacteria were grown for 24 hours on selective plates or in selective liquid media. Cells were harvested and resuspended in phosphate-buffered saline (PBS) buffer. […] Chemiluminescence was detected using LAS 3000 (Fujifilm)(software Image reader LAS 3000 V2.2)

revTetR = revTetR (Escherichia coli, UniProt P0ACT4); conditions: cited from earlier work
[4] = test system: TetR-controlled GFP expression (uPtetO-GFP); experiment: GFP reporter assay, liquid culture (BHI), induction by ATc; assay type: cell-based, H. pylori; conditions: for induction of GFP expression: 100 ng/mL ATc, BHI media
Procedure: 5 mL cultures were grown for 14 h and then induced with 200 ng/mL ATc unless otherwise stated. Bacteria were harvested by centrifugation, washed twice with PBS and resuspended to a density of 20D600. Then, 0.1 ml of the bacterial suspension was transferred into black 96-well plates, and fluorescence at 520 nm after excitation at 485 nm was measured in using the POLARstar Omega platereader.

[5] = test system: GFP expression in strains expressing TetR or revTetR; experiment: GFP fluorescence on blood agar plates with ATc; assay type: cell-based, H. pylori; conditions: 50 ng/mL ATc in blood agar plates
Procedure: Bacteria were plated onto fresh CBA plates with or without 50 ng/mL ATc and visualized after 24 hr incubation. For Tet-OFF strains, ptetR(2,4,6) bacteria were passaged twice on CBA plates containing ATc prior to the experiments, to allow strains enough time to repress GFP expression.

TetR = TetR (Escherichia coli, UniProt P0ACT4, D23E/I36V/T20V); conditions: cited from earlier work
[6] = test system: urease activity of X47 urePtetO strains; experiment: Liquid urease activity assay; assay type: cell-based, H. pylori
Procedure: Bacteria were grown on CBA plates with or without 50 ng/mL ATc for two successive passages. Bacteria were resuspended in cold buffer A (25 mM phosphate buffer, pH 6.8) and standardized to an OD600 of 4.0. 50 μL of standardized bacterial suspension was diluted with 50 μL of buffer B (25 mM phosphate buffer, pH 6.8, 0.2% tween-20). In 96 well plate, 25 μL of diluted bacterial suspension was diluted with 150 μL of buffer C (25 mM phosphate buffer, pH 6.8, 250 μM phenol red) and incubated for 5 min at 37° C. 75 μL of urea solution (0.5 M) was then added and the absorbance at 560 nm was measured every 72 seconds for 75 cycles using a POLARstar Omega (BGM Labtech) platereader. Activity was measured as the rate of change in absorbance over time and expressed as percent of urease activity of the wild-type parent strain. All urease activity measurements were carried out in triplicate and experiments were repeated three times.

[7] = test system: TetR-controlled GFP expression; experiment: Kinetics of uPtetO1-GFP induction by immunoblotting; assay type: cell-based, H. pylori
Procedure: (§1) Immunoassays—SDS-PAGE and Western Blot Analysis
Whole cell lysates of bacteria growing on either chloramphenicol or streptomycin plates was resuspended in phosphate-buffered saline (PBS) buffer. Cells were pelleted and resuspended in lysis buffer (50 mM Tris-HCl, 250 mM NaCl, 1% triton X-100) and incubated on ice for 15 min. Samples were then sonicated for 10 sec. Insoluble cell debris was removed by centrifugation at 13,000 rpm form 10 min at 4° C. Cell lysates were mixed with sodium dodecyl sulfate (SDS) sample buffer and incubated at 95° C. for 10 min. The proteins were separated by 10% SDS-polyacrylamide gel electrophoresis (PAGE) and electrotransferred to a pvdf (0.22 μm Immobulon, Millipore) membrane at 4° C. with a constant voltage of 90 V in transfer buffer (192 mM glycine, 25 mM Tris, 20% [vol/vol] methanol) for 2 hours. The membrane was blocked by using 2% BSA (Sigma) in PBST (150 mM NaCl, 10 mM Tris-C1, pH 7.0, 0.1% [vol/vol] Tween 20) and then incubated with the appropriate primary antibody, washed and then incubated with a secondary antibody containing a horseradish peroxidise (HRP) conjugate. The membrane was washed again and detection of secondary HRP conjugate was accomplished by chemiluminescence (Sigma). […] Chemiluminescence was detected using LAS 3000 (Fujifilm)(software Image reader LAS 3000 V2.2)

urease activity = experiment: Urease disc diffusion assay; assay type: cell-based, H. pylori; conditions: plate inoculated with untreated bacteria
Procedure: Bacteria were plated onto urease plates, and blank discs were placed onto the inoculated plate. 10 μL of ATc was placed onto each disc and plates were incubated under microaerophilic conditions and examined for colour change every […].

[8] = test system: urePtetO induction of Tet-ON strains; experiment: Urease plate assay; assay type: cell-based, H. pylori; conditions: for ATc concentration at which significant urease activity is detected: after 24 h
ptetR2 and uPtetO1-GFP = experiment: GFP disc diffusion assay; assay type: cell-based, H. pylori; conditions: bacterial lawns containing ptetR2 and uPtetO1-GFP; after 24 hours of incubation
[9] = test system: urePtetO promoters (UreB subunit); experiment: Immunoblotting of UreB in urePtetO strains; assay type: cell-based, H. pylori
Procedure: as §1
Whole cell lysates of bacteria growing on either chloramphenicol or streptomycin plates was resuspended in phosphate-buffered saline (PBS) buffer. Cells were pelleted and resuspended in lysis buffer (50 mM Tris-HCl, 250 mM NaCl, 1% triton X-100) and incubated on ice for 15 min. Samples were then sonicated for 10 sec. Insoluble cell debris was removed by centrifugation at 13,000 rpm form 10 min at 4° C. Cell lysates were mixed with sodium dodecyl sulfate (SDS) sample buffer and incubated at 95° C. for 10 min. The proteins were separated by 10% SDS-polyacrylamide gel electrophoresis (PAGE) and electrotransferred to a pvdf (0.22 μm Immobulon, Millipore) membrane at 4° C. with a constant voltage of 90 V in transfer buffer (192 mM glycine, 25 mM Tris, 20% [vol/vol] methanol) for 2 hours. The membrane was blocked by using 2% BSA (Sigma) in PBST (150 mM NaCl, 10 mM Tris-C1, pH 7.0, 0.1% [vol/vol] Tween 20) and then incubated with the appropriate primary antibody, washed and then incubated with a secondary antibody containing a horseradish peroxidise (HRP) conjugate. The membrane was washed again and detection of secondary HRP conjugate was accomplished by chemiluminescence (Sigma). For detection of TetR and revTetR, rabbit polyclonal IgG anti TetR (MoBiTec) at a dilution of 1:2000 was used as the primary. For detection of UreB subunit, mouse monoclonal IgG anti UreB (Austral Biologicals) was used at a dilution of 1:8000. For detection of GFP, rabbit polyclonal anti GFP (Ondek) was used at a dilution of 1:2000. Secondary antibodies, mouse anti-rabbit-HRP and rabbit anti-mouse-HRP (Jackson ImmunoResearch Laboratories) were used at a dilution of 1:10,000. Chemiluminescence was detected using LAS 3000 (Fujifilm)(software Image reader LAS 3000 V2.2)

H. pylori = experiment: Minimal inhibitory concentration of ATc in liquid culture; assay type: cell-based; conditions: MIC as measured in liquid culture; maximal induction at 100 ng/mL

TetR, sequence (P0ACT4 with tags, fused parts or gaps T20V/D23E/I36V): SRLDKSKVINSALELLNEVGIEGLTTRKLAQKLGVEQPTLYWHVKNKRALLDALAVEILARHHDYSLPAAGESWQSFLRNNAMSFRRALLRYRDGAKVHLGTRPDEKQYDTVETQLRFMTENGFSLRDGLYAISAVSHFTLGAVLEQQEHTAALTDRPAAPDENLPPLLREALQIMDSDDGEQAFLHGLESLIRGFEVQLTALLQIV
revTetR, sequence (P0ACT4 with tags, fused parts or gaps E15A/L17G/T20V/D23E/L25V/I36V): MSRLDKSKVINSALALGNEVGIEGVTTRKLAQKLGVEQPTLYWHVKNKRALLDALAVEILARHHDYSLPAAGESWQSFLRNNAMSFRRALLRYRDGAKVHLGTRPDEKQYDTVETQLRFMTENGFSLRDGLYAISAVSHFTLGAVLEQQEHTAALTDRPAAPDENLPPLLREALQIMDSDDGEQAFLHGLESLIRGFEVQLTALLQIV

Structure (SMILES): C[C@H]1c2cccc(O)c2C(=O)C2=C(O)[C@]3(O)C(=O)C(C(N)=O)=C(O)[C@@H](N(C)C)[C@@H]3[C@@H](O)[C@@H]21 [dox, doxycycline]
- time infection could be maintained with dox supplementation ([1]; strain mdaB::ptetR4, urePtetOI): at least 4 weeks
- dox concentration at which the strain could be re-isolated ([1]; strain mdaB::ptetR4, urePtetOI): 0.1 to 5 µg/mL
- dox concentration at which the strain could be re-isolated ([1]; strain mdaB::ptetR6, urePtetOV): 5 to 20 µg/mL

Structure (SMILES): Cc1c2c(c(O)c3c(O)cccc13)C(=O)[C@]1(O)C(=O)C(C(N)=O)=C(O)[C@@H](N(C)C)[C@@H]1C2 [ATc, Anhydrotetracycline]
- expression of FliCsyn [2]: showed expression of FliCsyn
- cre expression [3]: induced
- binding affinity for revTetR (revTetR): very high binding affinity
- induction of GFP expression ([4]; ptetR2 uPtetO1, all three recipient loci): 4-9 fold
- induction of GFP expression ([4]; ptetR4 uPtetO1, all three recipient loci): 13-80 fold
- induction of GFP expression ([4]; ptetR6 uPtetO1, all three recipient loci): 2-5 fold
- induction of GFP expression ([4]; uPtetO2 strains, ptetR2): 1.5-3 fold
- induction of GFP expression ([4]; uPtetO2 strains, ptetR4): 3-8 fold
- induction of GFP expression ([4]; uPtetO2 strains, ptetR6): 3-8 fold
- ATc concentration giving maximal GFP activities ([4]; bacteria grown in different concentrations of ATc): 100 ng/mL
- GFP activities compared with maximal induction ([4]; induction with 25 ng/ml ATc): 2.4 fold lower
- GFP expression (observed fluorescence intensities) ([5]; strains expressing TetR): induction
- GFP expression (observed fluorescence intensities) ([5]; strains expressing revTetR): repression
- binding affinity for TetR (TetR): very high binding affinity
- urease activity on addition of ATc ([6]; strains ptetR2, urePtetOI and V, ptetR3, urePtetOIV and ptetR6, urePtetOV): only partially restored
- urease activity on addition of ATc ([6]; strains ptetR2, urePtetOII, ptetR3, urePtetOI, II and III): completely restored urease activity
- urease activity on addition of ATc ([6]; the other Tet-ON strains): below 10 % of wild-type urease activity
- time of maximal GFP activities after the addition of ATc ([7]; ptetR2 and ptetR4 containing bacteria): 16 h
- kinetics of GFP induction ([7]; ptetR6 containing bacteria): strong but delayed induction
- urease activity by diffusion of ATc from disc (urease activity): induced
- ATc concentration sufficient to induce all five urePtetO promoters ([8]; ptetR4 strains): 1 ng/mL
- ATc concentrations at which urease activity decreases ([8]; ptetR4 strains): above 25 ng/mL
- ATc concentrations at which urease activity decreases ([8]; ptetR6 strains): above 50 ng/mL
- ATc concentration at which urease activity is evident ([8]; ptetR6 strains, urePtetOIII, only after 48 hr): 25 ng/mL and 50 ng/mL
- ATc concentration at which significant urease activity is detected ([8]; ptetR6 strains, urePtetOIV): 10 ng/mL
- ATc concentration at which significant urease activity is detected ([8]; ptetR6 strains, urePtetOV): 5 ng/mL
- GFP expression around ATc discs (ptetR2 and uPtetO1-GFP): halo of GFP expression is evident around each disc
- repression of UreB expression ([9]; constructs I, II and V of the Tet-OFF system): Incomplete repression
- response of urePtetO to ATc ([9]; strains harbouring ptetR3): did not display response
- abundance of the UreB subunit upon the addition of ATc ([9]; strains harbouring the revTetR repressor (Tet-OFF system)): reduced below the detection limit
- ATc concentration of maximal induction relative to the minimal inhibitory concentration (MIC) (H. pylori): 10 fold below
